Experimental data reported in patent US7531550B2, “Pseudobase benzo[c]phenanthridines with improved efficacy, stability, and safety” (Yale University, priority 2006, dated 2009).
One block for each molecule: values may come before it.

Columns and labels:
Format in all cases: physicochemical
[1] = Solubility of the chelerythrine ether dimer
Excerpt: (§1) The quaternary nitrogen imparts inherent chemical reactivity into these alkaloids. Nucleophiles can readily add to the adjacent carbon to create a neutral pseudobase. Water forms an unstable adduct with chelerythrine that can be seen in NMR studies. Additionally, 6-methoxy-5,6-dihydrochelerytherine and 6-ethoxy-5,6-dihydrochelerytherine (Artarine) have been reported as byproducts formed during the isolation of chelerythrine from plants utilizing methanol and ethanol extractions. The ability of this class of compounds to form pseudobases which can convert back to the quartenary […] is dependent on the solubility of the resulting pseudobase in biological media, the basicity of the leaving group adjacent to the position to become quartenary and the aromatic substitution pattern and nature of substituting agents (electron donating or withdrawing). Sanguinarine forms the hydroxyl psuedobase in pH 7.4 water to a higher extent than Chelerythrine. Under basic aqueous conditions, the hydroxypsuedobase of Cheleryturine will dimerize forming an ether bridge between two Chelerythrine molecules attached to the carbon adjacent to the ring nitrogen.

[2] = Conversion to chelerythrine in 0.1N HCL with 30% methanol; conditions: then 30% methanol added
Excerpt: as §1

[3] = Conversion of chelerythrine pseudobases to parent chelerythrine in simulated gastric fluid (SGF); conditions: for conversion to chelerythrine chloride (1H NMR analysis): 1 mg in 5 mL, 37° C.
Protocol: Simulated Gastric Fluid (SGF): Sodium chloride (2 gm), 750 mL distilled water, and 7.0 mL of concentrated hydrochloric acid are added into a 1000 ml volumetric flask. The flask is swirled to mix and the volume brought to 1000 mL with distilled water. The pH should be approx. 1.2.
(§2) General conversion procedure: The pseudobases are placed in SGF or SIF at about 0.2 mg/mL concentration and placed in 37° C. bath with gentle stirring. For those pseudobases which have low aqueous solubility, up to 20% co-solvent such as methanol is added to facilitate dissolution. The progress of the conversion is followed by visual observation (color change) and ^1H NMR analysis.
(§3) 6-tert-Butoxy-5,6-dihydrochelerythrine (1 mg) is placed in 5 mL of simulated gastric fluid in a glass vial. The vial is gently placed in 37° C. bath with gentle stirring. The solid pseudobase gradually dissolves to give a yellow solution which is the characteristic color of the parent chelerythrine chloride.
as §3, with “6-Diethyl-(5,6-dihydrochelerythrine)-malonate” for “6-tert-Butoxy-5,6-dihydrochelerythrine”, “vial containing 10% methanol.” for “vial.”

[4] = Conversion of chelerythrine pseudobases to parent chelerythrine in simulated intestinal fluid (SIF); conditions: 1 mg in 5 mL, 37° C., after 4 h
Protocol: Simulated Intestinal Fluid (SIF): Monobasic potassium phosphate (6.8 gm) and sodium hydroxide (0.616 gm) are added into 250 ml of distilled water in a 1000 ml volumetric flask and swirled until dissolved. 700 ml distilled water is added and the pH checked. The pH is adjusted to pH 6.8+/−0.1 by adding either 0.2N sodium hydroxide or 0.2N hydrochloric acid and the volume is brought to 1000 ml.
as §2
as §3, with “N-(isopropyl)-5,6-dihydrochelerythrine-6-amine” for “6-tert-Butoxy-5,6-dihydrochelerythrine”, “intestinal” for “gastric”, “dissolved” for “dissolves”

solubility [1]: quite insoluble
conversion to Chelerythrine [2]: occurs rapidly
conversion to Chelerythrine in simulated gastric fluids ([3]; simulated gastric fluids): does not convert readily
Compound: COc1ccc2c(c1OC)C(OC1c3c(ccc(OC)c3OC)-c3ccc4cc5c(cc4c3N1C)OCO5)N(C)c1c-2ccc2cc3c(cc12)OCO3 (stereo not drawn) [compound 34, 6-(5,6-dihydrochelerytherin-6-yloxy)-5,6-dihydrochelerytherine]

Compound: COc1ccc2c(c1OC)C(OC(C)(C)C)N(C)c1c-2ccc2cc3c(cc12)OCO3 (stereo not drawn) [compound 37, 6-tert-butoxy-5,6-dihydrochelerytherine]
conversion to chelerythrine chloride (1H NMR analysis) ([3]; simulated gastric fluid, after 2 h): complete conversion

conversion to chelerythrine chloride (1H NMR analysis) [4]: complete conversion
Compound: COc1ccc2c(c1OC)C(NC(C)C)N(C)c1c-2ccc2cc3c(cc12)OCO3 (stereo not drawn) [compound 43, N-(isopropyl)-5,6-dihydrochelerythrine-6-amine]

conversion to chelerythrine chloride (1H NMR analysis) ([3]; simulated gastric fluid containing 10% methanol, after 16 h): complete conversion
Compound: CCOC(=O)C(C(=O)OCC)C1c2c(ccc(OC)c2OC)-c2ccc3cc4c(cc3c2N1C)OCO4 (stereo not drawn) [compound 50, 6-diethyl-(5,6-dihydrochelerythrine)-malonate]
